Data on two molecules can be found in article PMC9321647, “Curcumin-Based β-Diketo Ligands for Ga^3+: Thermodynamic Investigation of Potential Metal-Based Drugs” (Pharmaceuticals, 2022).

Data set [1] can be described thus: DPPH radical-scavenging assay. The settings on record: free ligand. On the procedure:
The antioxidant activity of compounds 4 and 5 and their Ga^3+ metal complexes at the M:L 1:1 and 1:2 molar ratio was evaluated in terms of hydrogen-donating or radical scavenging ability using a stable DPPH radical, 1,1-diphenyl-2-picrylhydrazyl radical, following the procedure previously reported. The percentage of inhibition (%In) of the DPPH radical by each sample was calculated according to the following formula: %In=A0−At/A0×100 where A0 represents the absorbance of the control (DPPH radical) at time 0, while At refers to the absorbance of the mixture antioxidant/DPPH at time t (120 min). Values of absorbance were corrected considering volume dilution. All the determinations were performed in duplicate.

Data set [2] has as its system HCT116 colon carcinoma cells. Put plainly: MTT cell viability assay. The data set is classed as cell-based, Human. The settings on record: mean. The method, then:
Human colorectal carcinoma HCT116 cells (#91091005, ECACC) were grown in an IMDM medium (Biowest) supplemented with 2 mM glutamine, 100 IU/mL penicillin, 100 μg/mL streptomycin and 10% FBS (Gibco). The cell lines were grown at 37 °C in a humidified incubator containing 5% CO2. The cells were verified to be mycoplasma-free and passaged < 3 months. The inhibition of cell proliferation was measured by colorimetric 3-(4,5-dimethylthiazol-2-yl)-2,5-diphenyltetrazolium bromide (MTT) assay. GI50 concentrations were determined using the CompuSyn software version 1.0 (ComboSyn, Inc., Paramus, NJ USA) (free download via www.combosyn.com, accessed on 30 May 2022), and statistical analyses were performed using the GraphPad PRISM software (version 6.01 for Windows, GraphPad Software, San Diego, California USA GraphPad Prism) using unpaired t-test. Data were considered to be statistically significant if p < 0.05 (*), p < 0.01 (**), p < 0.001(***) and p < 0.0001 (****).

A short description of data set [3]: Spectrophotometric pH titrations of ligands (protonation constants, pKa). The data set is classed as physicochemical. The settings on record: 298 K; for logβ011 overall protonation constant / logβ012 overall protonation constant / logβ013 overall protonation constant: HypSpec, spectrophotometric data; for pKa: aqueous solution (methanol stock diluted in water). The method, then: UV–visible spectra were recorded with a JASCO V-570 UV/Vis/NIR spectrophotometer at 298 K in the 250–600 nm spectral range employing quartz cells (1 cm optical path). To perform spectrophotometric titrations, ligands (denoted generally as L in the following) were dissolved in methanol to give a mother solution (2.50 mM), that was then diluted in water in order to obtain a final concentration of 50 μM. The metal/ligand (M:L) solutions were obtained by adding appropriate quantities of Ga(NO3)3 as methanol solutions (5–10 mM) in order to obtain the metal-to-ligand 1:1 molar ratio (L = 50 μM and V = 25 mL). For both L and M:L systems, pH (initial value of about 5) was varied by adding small amounts (<1 μL) of concentrated NaOH (4 M) up to ca. pH 11, thus to consider volume variations negligible. To evaluate the complexation ratio, constant additions of the M solution (10 µL each time, M = 10^–2 M) were dropped into the ligand solution (V = 25 mL, L = 50 μM) using a micropipette in order to reach different M:L molar ratios. A constant ionic strength (NaNO3, 0.1 M) was maintained in all experiments. Spectrophotometric investigations of iron(III) systems were performed in the same conditions; the Fe^3+ solution was freshly prepared in methanol starting from Fe(NO3)3·9H2O. The overall protonation constants (logβqr) and the overall stability constants of metal complexes (logβpqr) were evaluated from spectrophotometric data. The stability constants (βpqr), defined by the following equations:(3) pM^m++qL^l^−+rH^+⇌MpLqHr(mp−lq+r) (4) βpqr=[MpLqHr(mp−lq+r)]/[M^m+]^p·[L^l−]^q·[H^+]^r where L is the ligand in the completely dissociated form and H is proton, were refined using least-squares calculation in HypSpec. The results of least-squares calculation include the standard deviations and correlation coefficients of the refined parameters. The quantities are obtained by performing error propagation calculation from the experimental errors onto the parameters. The stability constant refinement furnishes least-squares estimates of the standard deviation, σ, of the stability constant β. The error on logβ is calculated as follows: σ(logβ) = [log(β + σ) − log(β − σ)]/2.

[4] abbreviates: calculated from logβ values, * = keto–enol moiety dissociation.

Read-outs that look alike come from different tables or passages of the source.

Molecule “2-((4Z,6E)-5-hydroxy-7-(4-hydroxyphenyl)-4-((E)-3-(4-hydroxy-3-ethoxyphenyl) acryloyl) hepta-4,6-dien-1-yl)isoindoline-1,3-dione [Compound 5]” showed an IC50 in data set [1] of 32 µM. This molecule had a GI50 in data set [2] (HCT116, 48 h of treatment) of 8.76 µM. In data set [3], the “logβ011 overall protonation constant” value is 10.44 (3), the “logβ012 overall protonation constant” value is recorded as 20.45 (2) and the “logβ013 overall protonation constant” value is reported as 29.58 (4). In data set [3] (setting [4]), the pKa1 is on record as 9.13 (6), the pKa2 was 10.01 (5) and the pKa3 was 10.44 (3).
With `COc1cc(/C=C/C(=O)C(CCCN2C(=O)c3ccccc3C2=O)C(=O)/C=C/c2ccc(O)c(OC)c2)ccc1O` [Compound 4], the IC50 in data set [1] came to 20 µM. Also, in data set [2] (Homo sapiens, HCT-116, HCT116, 48 h of treatment), halving of growth (GI50) required 5.36 µM. Also, in data set [3], the “logβ011 overall protonation constant” value is recorded as 10.78 (4), the “logβ012 overall protonation constant” value was 20.44 (6) and the “logβ013 overall protonation constant” value is reported as 29.44 (6). In data set [3] (calculated from logβ values, * = keto–enol moiety dissociation, read-out: pKa1), the pKa is 9. In data set [3] (calculated from logβ values, * = keto–enol moiety dissociation, read-out: pKa2), the pKa is 9.66. Also, the pKa in data set [3] (calculated from logβ values, * = keto–enol moiety dissociation, read-out: pKa3) was 10.8.
